One experiment concerns wheat downy mildew. As to the kind of experiment: Toxicity test of wheat downy mildew (pot test on sprayed seedlings, EC50 and co-toxicity coefficient by Sun Yunpei's method). Conditions: for TTI: toxicity index, wheat downy mildew; for EC50 (PPM): wheat seedlings, sprayed 24 h before inoculation, disease index after seven days. It is filed as in vivo. The protocol:
(§1) The toxicity index of each of the formulations and the co-toxicity coefficient (CTC value) of the mixed formulation were calculated according to Sun Yunpei's method. […] Actual toxicity index (ATI) = (standard formulation EC50/testing formulation EC50)*100 [formula]
(§2) Theoretical toxicity index (TTI) = (toxicity index of formulation A * percentage of A in the mixed formulation) + (toxicity index of formulation B * percentage of B in the mixed formulation) Co−toxicity coefficient (CTC) = [actual toxicity index(ATI) of the mixed formulation/theoretical toxicity index (TTI)of the mixed formulation]*100 [formula]
The samples were selected from wheat seedlings in the same growing period of three to four leaf stage. Three pots were selected for each treatment and each pot was sprayed with 5 mL with a potter spray tower at the pressure of 50 PSI and each chemical was set for 12 concentration gradients. Inoculation was carried out 24 hours after the treatment of the formulations. The conidiums from the leaves with wheat downy mildew (collected from a field) was spread evenly on the wheat seedlings, and then the wheat seedlings were put in the green house for culturing.
Seven days later, the disease index for the whole plant was studied according to the pathological grading standard of wheat downy mildew. The prevention and control efficacy was determined, and the generalized least square method was applied to calculate the half maximal effective concentration EC50. The Sun Yunpei's method was applied to calculate the co-toxicity coefficient (CTC). Table 1: Toxicity Test Result of Applying the Present Invention to Prevent and Control Wheat Downy Mildew

Another experiment deals with potato gray mold. As to the kind of experiment: Toxicity test of potato gray mold (pot test on sprayed seedlings, EC50 and co-toxicity coefficient by Sun Yunpei's method). It is filed as in vivo. To be noted: for EC50 (PPM): potato seedlings, sprayed 24 h before inoculation, disease index after seven days; for TTI: toxicity index, potato gray mold. The protocol: as §1, §2
The samples were selected from potato seedlings in the same growing period of three to four leaf stage. Three pots were selected for each treatment and each pot was sprayed with 5 mL with a potter spray tower at the pressure of 50 PSI and each chemical was set for 12 concentration gradients. Inoculation was carried out 24 hours after the treatment of the formulations. The conidiums from the leaves with potato gray mold (collected from a field) was spread evenly on the potato seedlings, and then the potato seedlings were put in the green house for culturing.
Seven days later, the disease index for the whole plant was studied according to the pathological grading standard of potato gray mold. The prevention and control efficacy was determined, and the generalized least square method was applied to calculate the half maximal effective concentration EC50. The Sun Yunpei's method was applied to calculate the co-toxicity coefficient (CTC). Table 2: Toxicity Test Result of Applying the Present Invention to Prevent and Control Potato Gray Mold

The subject of the next experiment is cabbage leaf spot. Put plainly: Toxicity test of leaf spot of cabbage (pot test on sprayed seedlings, EC50 and co-toxicity coefficient by Sun Yunpei's method). It is filed as in vivo. To be noted: for EC50 (PPM): cabbage seedlings, sprayed 24 h before inoculation, disease index after seven days; for TTI: toxicity index, cabbage leaf spot. The procedure:
as §1, §2
The samples were selected from the cabbage seedlings in the same growing period. Three pots were selected for each treatment and each pot was sprayed with 5 mL with a potter spray tower at the pressure of 50 PSI and each chemical was set for 12 concentration gradients. Inoculation was carried out 24 hours after the treatment of the formulations. The conidiums from the leaves with cabbage leaf spot (collected from the field) was spread evenly on the cabbage seedlings, and the cabbage seedlings were then put in the green house for culturing.
Seven days later, the disease index for the whole plant was studied according to the pathological grading standard of cabbage leaf spot. The prevention and control efficacy was determined, and the generalized least square method was then applied to calculate the half maximal effective concentration EC50. The Sun Yunpei's method was applied to calculate the co-toxicity coefficient (CTC). Table 3: Toxicity Test Result of Applying the Present Invention to Prevent and Control Leaf Spot of Cabbage

A further experiment has as its system tomato downy mildew. As to the kind of experiment: Toxicity test of downy mildew of tomato (pot test on sprayed seedlings, EC50 and co-toxicity coefficient by Sun Yunpei's method). To be noted: for EC50 (PPM): tomato seedlings, sprayed 24 h before inoculation, disease index after seven days; for TTI: toxicity index, tomato downy mildew. Format: in vivo. The protocol: as §1, §2
The samples were selected from the tomato seedlings in the same growing period. Three pots were selected for each treatment and each pot was sprayed with 5 mL with a potter spray tower at the pressure of 50 PSI and each chemical was set 12 concentration gradients. Inoculation was carried out 24 hours after the treatment of the formulations. The conidiums from the leaves with tomato downy mildew (collected from the field) was spread evenly on the tomato seedlings, and the tomato seedlings were then put in the green house for culturing.
Seven days later, the disease index for the whole plant was studied according to the pathological grading standard of tomato downy mildew. The prevention and control efficacy was determined, and the generalized least square method was then applied to calculate the half maximal effective concentration EC50. The Sun Yunpei's method was applied to calculate the co-toxicity coefficient (CTC). Table 4: Toxicity Test Result of Applying the Present Invention to Prevent and Control Tomato Downy Mildew

The next experiment concerns potato cinerea. Put plainly: Activity of preventing and controlling grey mould of potato (Colby synergy test, visual observation). To be noted: Solanum tuberosum, potato seedlings in pots, read-out: Observed activity (%). It is filed as in vivo. An excerpt: A synergistic effect exists when the fungicidal activity of the active compound composition is greater than the sum of the activities of the active compounds applied individually. The expected activity for a given combination of two active compounds can be calculated in accordance with Colby's formula (refer to S.R. Colby, "Calculating Synergistic and Antagonistic Responses of Herbicide Combinations", Weeds 1967, 15, 20-22) as follows: • If X denotes the activity when using active compound A at an application rate of mg/ha or in a concentration of mppm; • Y denotes the activity when using active compound B at an application rate of ng/ha or in a concentration of nppm; • E denotes the activity when using active compounds A and B at application rates of m and ng/ha or in concentration of m and n ppm;
Then: E = X + Y−(X⋅Y)/(100) [formula]
The leaves of the potato seedlings in pots were sprayed with the suspension concentrate in a range of concentrations of the active compounds.
The next day, the treated plants were inoculated with a spore suspension of potato cinerea. The pots were then allowed to stand for 24 hours in a room at 20-22 °C and with high humidity (90-95%). During this period, the spores germinated and the germ tubes penetrated into the leaf tissues. […] Later, the development of cinerea on the leaves was determined by visual observation.

Another experiment concerns sclerotia sclerotium. Conditions: after applying it once in a suitable period; cited from earlier work.

Molecules are shown by their SMILES.

In the case of `O=C(Nc1ccccc1-c1ccc(Cl)cc1)c1cccnc1Cl` [Boscalid, 2-chloro-N-(4'-chlorobiphenyl-2-yl) nicotinamide], the TTI in the experiment on wheat downy mildew, with potato gray mold, with cabbage leaf spot and in the experiment on tomato downy mildew was 100 throughout. Besides, the “EC50 (PPM)” value is recorded as 16.23 PPM in the experiment with wheat downy mildew, 15.23 PPM in the experiment with potato gray mold, 26.13 PPM with cabbage leaf spot and 22.24 PPM in the experiment with tomato downy mildew. Besides, the activity at 8 ppm in the experiment on potato cinerea (Concentration 8 ppm) came to 28%. The “control effect and disease index” value in the experiment with sclerotia sclerotium is listed as “more than 80%”.

As for `N#Cc1c(Cl)c(Cl)c(Cl)c(C#N)c1Cl` [Chlorothalonil, 2,4,5,6-tetrachloro-1,3-benzenedicarbonitrile], the TTI with wheat downy mildew stood at 86.5; in the experiment with potato gray mold it was 68.71; in the experiment on cabbage leaf spot, 68.71; in the experiment with tomato downy mildew, 68.91. Moreover, the “EC50 (PPM)” value is given as 18.76 PPM in the experiment on wheat downy mildew, 38.03 PPM with potato gray mold, 38.03 PPM with cabbage leaf spot and 32.27 PPM with tomato downy mildew. Further, the activity at 40 ppm in the experiment with potato cinerea (Concentration 40 ppm) was determined as 0%.

(Values after EP3023007A1, “[…]” (JIANGSU ROTAM CHEMISTRY CO., LTD., priority 2013, dated 2015).)
